Reference: patent US9505758B2 (priority 2013, dated 2016)

Target: T1, influenza A virus (IAV) PA-Nter fragment (amino acids 1-209) (Influenza A virus, UniProt P31343)
T1 construct: PA-Nter fragment (amino acids 1-209); made in house
Experiment: FRET endonuclease activity assay
Assay type: biochemical
Conditions: calculated from initial reaction velocities (v0); 0.5 μM PA-Nter, 1.6 μM RNA substrate

Compound	IC50
O=C(O)c1cn(Cc2ccccc2-c2ccccc2)c2cc(Br)cnc2c1=O [1-(Biphenyl-2-ylmethyl)-7-bromo-4-oxo-1,4-dihydro-1,5-naphthyridine-3-carboxylic acid]	1500 nM
O=C(O)c1cn(CC2(c3ccccc3)CCCC2)c2cccnc2c1=O	600 nM
O=C(O)c1cn(Cc2ccccc2-c2ccc(Cl)cc2)c2cccnc2c1=O	430 nM
O=C(O)c1cn(CC2(c3ccccc3)CCCC2)c2nccnc2c1=O	9700 nM
O=C(O)c1cn(Cc2ccccc2-c2ccccc2)c2nccnc2c1=O	7800 nM
Cc1cnc2c(=O)c(C(=O)O)cn(Cc3ccccc3-c3ccccc3)c2c1	570 nM
O=C(O)c1cn(Cc2ccccc2-c2ccccc2)c2cccnc2c1=O	760 nM
